Source: US12516058B2, “Small-molecule compounds for controlling endosomal toll-like receptors and therapeutic agent for autoimmune diseases using same” (priority 2020, dated 2026)
“Also recorded” adds a separate entry of the source.

Key:
[1] = test system: RAW 264.7 cells; test: MTT cytotoxicity (LC50) and therapeutic index analysis; assay type: cell-based, mouse; details: 24 h, among the 13 selected compounds
Experimental: RAW 264.7 cells were seeded at a density of 2×10^4 cells/well in a 96-well cell culture plate and stabilized overnight in a humidified incubator. Each well was treated with a test compound or negative control (dimethyl sulfoxide; DMSO). The plates were allowed to stand in an incubator for 24 hours. Then, the medium of the 96-well culture dish was discarded and 500 μg/ml MTT solution (InvivoGen Ltd.) was added to each well. After incubation for 3 hours, the solution was removed and the residue was incubated in DMSO (Biosesang Co. Ltd., Korea) for 30 minutes to completely dissolve the formazan dye. The absorbance was measured at a wavelength of 595 nm with a microplate colorimetric reader and normalized based on the untreated control. All cultures were performed under the same conditions as in the cell culture described above.
In order to plot the concentration-dependent LC50 curves, treatment with the SK series ligands at different concentrations up to 200 μM (the highest concentration that could be treated within the level of 0.5% DMSO) was performed. Then, cell viability and toxicity response upon treatment with ligands were analyzed by MTT as described in Examples 1-3. Cell viability in each plot was normalized from negative control (100%; no treatment) to positive control (highest concentration of test-ligand), and LC50 was determined by non-linear regression (Graph Pad Prism 7.0). In order to plot the concentration-dependent IC50 curves, pre-treatment with the SK series ligands was performed at different concentrations up to 50 μM (twice the initial concentration). Cell responses mediated by TLR7 and TLR9 (levels of TNF-α secretion) were analyzed by ELISA as described in Examples 1-4. The cytokine level in each plot was normalized from negative control (non-treated) to positive control (treatment with ligand), and IC50 was determined by non-linear regression (Graph Pad Prism 7.0).
Then, LC50 and IC50 were applied to the following function to calculate TI.

[2] = test system: MRL/lpr (MRL/Fas^lpr) mice; test: MRL/lpr systemic lupus erythematosus mouse model, oral administration; assay type: in vivo; details: for change in body weight (index for long-term administration toxicity): daily oral, monitored at 3-day intervals; for visual therapeutic effects: oral once a day, SK series 30 mg/Kg, HCQ 60 mg/Kg; for antinuclear antibody (ANA) in blood plasma / C3 complement in blood plasma: end of experiment, ELISA, vs vehicle and HCQ 60 mg/Kg; for antinuclear antibody (ANA) in blood plasma: reaches normal as it decreases; for C3 complement in blood plasma: reaches normal as it increases; for visual (apparent) healing effect: oral once a day for 4 weeks, 15 mg/Kg for SK series and HCQ
Experimental: 14-weeks-old, 36-40 g, female MRL/lpr (or MRL/Fas^lpr) mice (purchased from the Jackson Laboratory, USA through Orient Bio) were used for the lupus treatment effect experiment and breeding was performed in accordance with the breeding and ethics regulations of the Laboratory Animal Research Center of the Ajou University Medical Center. Prior to the experiment, 4 to 5 animals were randomly assigned to each of a negative control group (Vehicle), a positive control group (HCQ), and an experimental compound group (SK41, SK50, SK58 and SK64) for blinding, and each of SK41, SK50, SK58, and SK64 compounds was completely dissolved in a vehicle consisting of ethanol (ethyl alcohol) 10%, polyethylene glycol 400 40% and sterile distilled water 50%, and then the solution was orally administered to experimental animals.
As for the administration method, only the same amount of vehicle was administered to the negative control group, 15-60 MPK (15-60 mg/Kg) of HCQ was administered daily to the positive control group, and SK41, SK50, SK58 and SK64 was administered daily in an amount of 15-30 MPK (15-30 mg/Kg) to the experimental compound group, […] experimental mice were 14 weeks old.
As for the sample collection method, the weight of the experimental mice was measured at 3-day intervals, and the mice were subjected to inhalational anesthesia and euthanasia using IFRAN liquid (Hana Pharmaceutical, Korea; ingredient name: Isoflurane) on the day of expiry of 40 days, and then blood, kidney, spleen and axillary lymph nodes and inguinal lymph nodes were collected therefrom.
Blood samples were collected from the heart of an anesthetized mouse, the serum was extracted therefrom using a serum separation tube and a centrifuge (4,000 rpm, 10 minutes, 4° C.), and blood concentrations of ANA (anti-nuclear Antibody, MyBioSourse, USA) as a lupus severity indicator molecule and C3 complement (MyBioSourse, USA), a comprehensive inflammatory indicator molecule, were measured through enzyme-linked immunosorbent assay (ELISA).
Organs were treated with an RNA stabilization agent (RNA Stabilization Reagent, Germany, QUIAGEN) immediately after extraction to preserve the condition and prepare specimens, the organs were imaged and weighed to determine whether or not the organs are damaged and to measure the degree of immune organ hypertrophy, and the sum of the weights of one pair of axillary lymph nodes and one pair of inguinal lymph nodes was recorded as the weight of the lymph nodes.

[3] = after administration for 40 days, 30 mg/Kg

| SMILES | toxicity (LC50) [1] | change in body weight (index for long-term administration toxicity) [2] | visual therapeutic effects [2] | appearance of the lymph nodes [2, 3] | weight of the lymph node [2, 3] | weight of the spleen [2, 3] | antinuclear antibody (ANA) in blood plasma [2] | C3 complement in blood plasma [2] | visual (apparent) healing effect [2] |
| --- | --- | --- | --- | --- | --- | --- | --- | --- | --- |
| COc1ccc2c(c1)c1c(N)c3c(nc1n2CCCN(C)C)CCCC3 [SK50, 6-(3-(dimethylamino)propyl)-9-methoxy-2,3,4,6-tetrahydro-1H-indolo[2,3-b]quinolin-11-amine] | lower toxicity | did not exhibit a change in body weight |  |  |  |  |  |  |  |
| COC(=O)c1ccc2c(c1)c1c(N)c3c(nc1n2CCCN(C)C)CCCC3 [SK64, Methyl 11-amino-6-(3-(dimethylamino)propyl)-2,3,4,6-tetrahydro-1H-indolo[2,3-b]quinolin-9-carboxylate] | lower toxicity | did not exhibit a change in body weight | superior to HCQ |  |  |  |  |  |  |
| Cc1ccc2c(c1)c1c(N)c3c(nc1n2CCCN(C)C)CCCC3 [SK58, 6-(3-(dimethylamino)propyl)-9-methyl-2,3,4,6-tetrahydro-1H-indolo[2,3-b]quinolin-11-amine] | lower toxicity | did not exhibit a change in body weight | superior to HCQ | relatively good | relatively less swollen | relatively less swollen | significant results; also recorded: low antinuclear antibody | significant results; also recorded: high C3 complement | superior visual (apparent) healing effect to that of HCQ |
| Cc1cc2c(N)c3c(nc2n1CCCN(C)C)CCCCCC3 [SK41, 1-(3-(dimethylamino)propyl)-2-methyl-5,6,7,8,9,10-hexahydro-1H-cycloocta[b]pyrrolo[3,2-e]pyridin-4-amine] | lower toxicity | did not exhibit a change in body weight | superior to HCQ | small inguinal lymph node sizes |  |  | significant results | significant results | superior visual (apparent) healing effect to that of HCQ |
